Data taken from BindingDB's records for doi:10.1002/cbic.201500446 (Hans Knöll Institute, 2015).
pIC50: −log10 of the molar value.

Molecular target: T1, Polyunsaturated fatty acid 5-lipoxygenase (Homo sapiens, UniProt P09917)
T1 sequence (P09917 whole entry): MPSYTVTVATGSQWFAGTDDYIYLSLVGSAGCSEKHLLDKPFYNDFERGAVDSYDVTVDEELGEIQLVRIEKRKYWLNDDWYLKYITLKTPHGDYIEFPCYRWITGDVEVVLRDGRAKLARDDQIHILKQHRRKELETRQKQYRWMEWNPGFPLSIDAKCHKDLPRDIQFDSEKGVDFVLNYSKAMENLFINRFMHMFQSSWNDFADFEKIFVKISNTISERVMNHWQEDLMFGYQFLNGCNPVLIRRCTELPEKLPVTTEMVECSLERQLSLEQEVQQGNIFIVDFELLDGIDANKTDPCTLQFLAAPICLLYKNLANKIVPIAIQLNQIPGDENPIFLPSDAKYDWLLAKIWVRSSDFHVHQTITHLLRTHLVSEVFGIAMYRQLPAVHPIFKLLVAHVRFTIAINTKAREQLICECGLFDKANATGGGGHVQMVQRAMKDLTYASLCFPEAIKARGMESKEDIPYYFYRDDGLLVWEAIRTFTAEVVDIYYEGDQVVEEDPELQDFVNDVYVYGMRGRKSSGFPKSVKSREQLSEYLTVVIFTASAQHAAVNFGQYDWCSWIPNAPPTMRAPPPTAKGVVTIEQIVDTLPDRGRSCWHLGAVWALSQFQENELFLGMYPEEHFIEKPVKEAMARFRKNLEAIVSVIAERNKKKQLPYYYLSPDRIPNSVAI
Assay: 5-LO Activity Assay
Protocol: Purified 5-LO was diluted in PBS containing EDTA (1 mM) and freshly added ATP (1 mM) and incubated with the myxochelin test substances for 10 min at 4°C, followed by 30 s at 37°C. Addition of CaCl2 (2 mM) and arachidonic acid (20 µM) initiatedthe 5-LO product formation. After 10 min, the reaction was terminated by adding ice-old MeOH (1 mL), and the production of 5-LO metabolites was analyzed by RP-HPLC.

pIC50 | Structure (SMILES)
5.50 | O=C(NCCCC[C@@H](CO)NC(=O)c1cccc(O)c1O)c1ccccc1 [Myxochelin J1]
5.82 | O=C(NCCCC[C@@H](CO)NC(=O)c1cccc(O)c1O)c1ccccc1O [Myxochelin J3]
5.03 | O=C(NCCCC[C@@H](CO)NC(=O)c1ccccc1O)c1ccccc1O [Myxochelin J5]
5.84 | O=C(N[C@H](CO)CCCCNC(=O)c1c(O)cccc1F)c1cccc(O)c1O [Myxochelin J6]
5.44 | O=C(NCCCC[C@@H](CO)NC(=O)c1c(O)cccc1F)c1c(O)cccc1F [Myxochelin J8]
5.08 | O=C(NCCCC[C@@H](CO)NC(=O)c1cccc(O)c1O)c1ccccc1F [Myxochelin J9]
< 5.00 | O=C(NCCCC[C@@H](CO)NC(=O)c1cccc(F)c1)c1cccc(F)c1 [Myxochelin J12]
5.44 | O=C(N[C@H](CO)CCCCNC(=O)c1cccc(O)c1O)c1ccccc1Cl [Myxochelin J14]

The next lines start with the compound.

Structure (SMILES) | pIC50
O=C(NCCCC[C@@H](CO)NC(=O)c1cccc(O)c1O)c1cccc(O)c1O [Myxochelin A] | 5.77
O=C(N[C@H](CO)CCCCNC(=O)c1cccc(O)c1O)c1ccccc1 [Myxochelin J2] | 5.62
O=C(N[C@H](CO)CCCCNC(=O)c1cccc(O)c1O)c1ccccc1O [Myxochelin J4] | 5.45
O=C(NCCCC[C@@H](CO)NC(=O)c1c(O)cccc1F)c1cccc(O)c1O [Myxochelin J7] | 5.93
O=C(N[C@H](CO)CCCCNC(=O)c1cccc(O)c1O)c1ccccc1F [Myxochelin J10] | 5.09
O=C(NCCCC[C@@H](CO)NC(=O)c1ccccc1F)c1ccccc1F [Myxochelin J11] | < 5.00
O=C(NCCCC[C@@H](CO)NC(=O)c1cccc(O)c1O)c1ccccc1Cl [Myxochelin J13] | 5.34
